Converted amounts (≈) assume the structure as drawn. Read-outs that look alike come from different tables or passages of the source.
Assays:
male mice = assay: Inhibition of arachidonic acid-induced ear inflammation in mice; type: in vivo; conditions: Mus musculus, po, 1 h
Description: Inhibition of Arachidonic Acid-induced Ear Inflammation in Mice (Opas E. E. et al.: J. Invest. Dermatol. 84, 253 (1985) Ear inflammation was induced in male mice by 20 μl of arachidonic acid dissolved in acetone (concentration 100 mg/ml). The mice were sacrificed 1 h after application of arachidonic acid and the ears were cut off by standard means. The other, vehicle-treated ear of the same animal served as a control. The degree of ear hyperemia and the weight of ear lobes were evaluated. Test compounds were administered orally 1 h before the induction of inflammation.

rats = assay: Inhibition of carrageenan-induced pleuritis in rats; type: in vivo; conditions: Rattus norvegicus, po, 4 h, dose 100 mg/kg, oral, values with mark n: p > 0.05
Description: Inhibition of Carrageenan-induced Pleuritis in Rats
(Hidaka T. J.: Pharm. Pharmacol. 38, 242 (1986) 1 ml of 0.5% carrageenan solution in saline was administered intrapleurally to experimental animals under mild ether anesthesia. Test drugs were administered in single oral dose 1 h before carrageenan injection, 4 h following the carrageenan application the rats were killed and exudate was withdrawn from opened pleural cavity. The volume of exudate, its cellularity and total cell number were determined.

[1] = system: LTB4 production in rat polymorphonuclear cells; assay: Ex vivo inhibition of LTB4 production (LTB4 biosynthesis); type: cell-based; conditions: for IC50: Rattus norvegicus, read-out: Inh. of LTB4 biosynth., IC50; for Inh. of LTB4 biosynth., %: at 30 μg (%/μg)
Description: Ex vivo Inhibition of LTB4 Production The production of LTB4 was determined in rat polymorphonuclear cells from pleural exudate elicited by heat-activated rat serum (Palmer R. M. J., Salmon J. A.: Immunology 50, 65 (1983)). The cells were stimulated with the Ca ionophore A 23187 (Sigma) and incubated with various concentrations of the drugs tested. The sample containing only buffer was used for the determination of unaffected biosynthesis; the complete inhibition was measured in a sample with 100 μg of NDGA in 1 ml. LTB4 was determined in supernatant using a commercial RIA kit (Amersham).

Wistar-Han rats = assay: Inhibition of carrageenan edema; type: in vivo; conditions: Rattus norvegicus, dose 100 mg/kg; read-out: CE: inhibition of carrageenan-induced edema, % of inh.
[2] = system: bronchospasm induced by LTD4; assay: Inhibition of bronchospasm induced by LTD4; type: in vivo; conditions: 4 min
Description: Inhibition of Allergic Bronchospasm Induced by […] (Compound 48/80 or Ovalbumin, Respectively)
The modified method of Kreutner W. et al (Krelutner W. et al.: Agents Actions 28, 253 (1989)) was used. Bronchoconstrictioin was induced by intravenous injection of 1 μg/kg LTD4 (3 mg/kg of compound […] or 0.35 mg/kg of ovalbumin, respectively). In the case of oval-bumin, the animals were senzitized by intraperitoneal injection of ovalbumin (100 mg/kg) 14 days before induction. The compounds tested were applied 5 min before the administration of the inductor; the vehiculum used for the application of compound tested was administered to the control group of animals. The tracheal pressure was determined in the intervals of 2, 4 and 10 minutes after induction. The effect was expressed in percentage inhibition of bronchospasm relative to the untreated control.

[3] = system: peroxidation of lipids from the hepatic cells membranes; assay: Antioxidant effect in vitro; type: biochemical; conditions: at 100 μg
Text: Antioxidant Effect in vitro
The end-product, malonic dialdehyde, was transformed to coloured complex with thiobarbituric acid and determined spectrophotometrically. The antioxidant effect was expressed in % of peroxidation inhibition in the presence of the compound tested in comparison to a control sample.

LTB4 receptor = LTB4 receptor (Cavia porcellus, UniProt H0VYV8); assay: LTB4 receptor binding study; conditions: 3H-LTB4, guinea-pig spleen membranes; for IC50: read-out: Inh. of LTB4 rec. binding, IC50; for inhibition at 20 µM: read-out: Inh. of LTB4 rec. binding, %
Description: LTB4 Receptor Binding Study
A slightly modified method of Cheng and coworkers (Cheng J. B. et al.: J. Pharm. Expl. Ther. 236, 126 (1986)) was used. The membrane fraction was prepared from male guinea-pig spleen; 2 mg of membranes were incubated with 0.3 nM ^3 H-LTB4 at 25° C. for 30 min in 100 μl of the incubated mixture. The nonspecific binding was determined in the presence of 0.1 μM LTB4. The membranes were filtered though Whatman GF/C paper and washed triply with buffer. The radioactivity was measured by liquid scintillation spectrometry, and the specific binding of ^3 H-LTB4 to the receptor was determined.

LTD4 receptor = biological target: T1, LTD4 receptor (Cavia porcellus, UniProt Q2NNR5); assay: LTD4 receptor binding study; conditions: 3H-LTD4, guinea-pig lung membranes; for IC50: read-out: Inh. of LTD4 rec. binding, IC50; for inhibition at 100 µM: read-out: Inh. of LTD4 rec. binding, %
T1 construct: The membrane fraction was prepared from male guinea-pig lungs; from tissue; host or cells: male guinea-pig lung membranes
T1 sequence (Q2NNR5 1-340): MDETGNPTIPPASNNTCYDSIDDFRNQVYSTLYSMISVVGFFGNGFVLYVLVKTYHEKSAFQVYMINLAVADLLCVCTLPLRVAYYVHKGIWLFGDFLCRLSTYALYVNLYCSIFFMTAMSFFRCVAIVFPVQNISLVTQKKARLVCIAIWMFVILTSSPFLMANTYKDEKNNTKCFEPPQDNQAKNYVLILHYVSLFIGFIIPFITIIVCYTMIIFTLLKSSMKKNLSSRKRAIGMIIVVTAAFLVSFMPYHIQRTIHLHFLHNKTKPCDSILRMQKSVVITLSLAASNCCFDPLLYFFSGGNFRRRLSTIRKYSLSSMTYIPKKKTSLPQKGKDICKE
Description: LTD4 Receptor Binding Study
This study was performed according to the method of Burns and coworkers (Burns R. F. et al.: Life Sci. 33, 645 (1983)). The membrane fraction was prepared from male guinea-pig lungs, and 4 mg of this fraction were incubated with 0.4 nM ^3 H-LTD4 for 60 min at 25° C. in 100 μl of the incubated mixture. The nonspecific binding was determined in the presence of 0.1 μM LTD4. The filtration of the membranes, washing, and radioactivity measurement were as above.

[4] = values with mark n: p > 0.05, read-out: Ear edema, D: edema of ear lobe, % of inh.
[5] = values with mark n: p > 0.05, read-out: Ear edema, E: hyperemia of ear lobe, % of inh.
[6] = read-out: Experimental pleuritis, A: volume of exudate in pleural cavity, % of inh.
[7] = read-out: Experimental pleuritis, B: number of cells, % of inh.
[8] = read-out: Experimental pleuritis, C: cellularity in a volume unit, % of inh.

Chain of LTB4 receptor (H0VYV8 1-348): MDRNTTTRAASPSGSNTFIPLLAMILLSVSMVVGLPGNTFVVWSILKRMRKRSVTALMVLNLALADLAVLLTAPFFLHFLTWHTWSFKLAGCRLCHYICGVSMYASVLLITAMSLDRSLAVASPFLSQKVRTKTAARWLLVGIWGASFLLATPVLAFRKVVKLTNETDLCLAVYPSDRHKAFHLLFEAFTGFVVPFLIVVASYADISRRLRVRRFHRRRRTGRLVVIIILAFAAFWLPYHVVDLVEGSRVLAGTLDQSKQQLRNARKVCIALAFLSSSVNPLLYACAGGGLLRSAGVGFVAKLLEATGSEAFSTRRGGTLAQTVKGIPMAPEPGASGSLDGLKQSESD

| Structure (SMILES) | inhibition in vivo at 200 mg/kg (male mice; [4]) | inhibition in vivo at 200 mg/kg (male mice; [5]) | inhibition in vivo at 100 mg/kg (rats; [6]) | inhibition in vivo at 100 mg/kg (rats; [7]) | inhibition in vivo at 100 mg/kg (rats; [8]) | IC50 [1] | Inh. of LTB4 biosynth., % [1] | inhibition in vivo at 100 mg/kg (Wistar-Han rats) | inhibition in vivo at 100 mg/kg [2] | Antiox. effect, % of peroxidation inhibition [3] | IC50 (LTB4 receptor) | inhibition at 20 µM (LTB4 receptor) | IC50 (LTD4 receptor) | inhibition at 100 µM (LTD4 receptor) |
| --- | --- | --- | --- | --- | --- | --- | --- | --- | --- | --- | --- | --- | --- | --- |
| CCCc1c(OCCCCOc2cccc(Sc3ccc(C(=O)O)cc3)c2)ccc(C(C)=O)c1O [Compound 8, 4-(3-(4-(4-Acetyl-3-hydroxy-2-propylphenoxy)butoxy)phenylsulfanyl)benzoic Acid] | 1% | 9% | 7% | 18% | 11% | 0.52 µg/mL (≈ 1.05 µM) | 100% | 24% | 98% | 22% | 3.7 µM | 100% | 39.3 µM | 69% |
| CCCc1c(OCCCOc2ccc(Sc3ccccc3CC(=O)O)cc2)ccc(C(C)=O)c1O [Compound 25, 2-(4-(3-(4-Acetyl-3-hydroxy-2-propylphenoxy)propoxy)phenylsulfanyl)phenylacetic Acid] | 20% | 16% | 4% | 38% | 44% | – | 100% | 7% | – | 23% | – | 19% | 37.5 µM | 71% |
| CCCc1c(OCCOc2ccc(Sc3ccc(C(=O)O)cc3)cc2)ccc(C(C)=O)c1O [Compound 1, 4-(4-(2-(4-Acetyl-3-hydroxy-2-propylphenoxy)ethyloxy)phenylsulfanyl)benzoicAcid] | 13% | 8% | 8% | 17% | 9% | 3.5 µg/mL (≈ 7.5 µM) | 100% | 31% | – | 54% | 17 µM | 61% | 10.8 µM | 98% |
| O=C(O)c1ccc(Sc2cccc(OCc3ccc4ccccc4n3)c2)cc1 [Compound 18] | 13% | 8% | 28% | 29% | 1% | 0.02 µg/mL (≈ 0.0516 µM) | 100% | 10% | – | 16% | 92.9 µM | 24% | 1.6 µM | 100% |
